Test results as given in US6375927B1, “Methods of radiotherapy using biomodulators” (priority 1991, dated 2002).

Key:
[1] = test system: B-16 melanoma cells; experiment: Effect of a biomodulator on the biodistribution of a non-specific agent (I-125 BSA); assay type: in vivo, mice; settings: 2 hours (FIG. 9) and 4 hours (FIG. 10)
Source text: The results of biodistribution studies of mice injected with 6×10^5 B-16 melanoma cells 7 days prior to the injection of Tc-99m labeled pokeweed (Tc-99m PWM) and I-125 bovine serum albumin (I-125 BSA) or Tc-99m labeled human serum albumin (Tc-99m HSA) and I-125 bovine serum albumin (I-125 BSA) .

[2] = test system: B-16 melanoma cells; experiment: Tissue localization of otherwise non-specific imaging agent (Tc-99m HSA) after pokeweed mitogen; assay type: in vivo, mouse; settings: 10 μg pokeweed mitogen four hours before 99mTc-HSA
Method: A mouse ([…]) was injected with B-16 melanoma cells in accordance with Example 1. 7 days later, 10 μg of pokeweed mitogen was injected into the mouse. Four hours later ^99mTc-human serum albumin (HSA) was injected. The resultant posterior gamma camera image is obtained of the tumor grown in the mouse. Comparison with the control image.

[3] = test system: xenografts of human teratocarcinoma tumors; experiment: Imaging tumors with 99mTc-labeled TNF-α and biomodulators; assay type: in vivo, Balb/c mice; settings: pretreatment 15 hours earlier
Method: Balb/c mice bearing xenografts of human teratocarcinoma tumors induced by subcutaneous injections of live tumor cells 8 days previously were injected with 10 μg of Ukrain, pokeweed mitogen or 10K units of interferon. 15 hours later, they were injected i.v. with 10 μCi of ^99mTc-labeled TNF-α labeled using the ascorbic acid reduction method of M. L. Thakur. M. L. Thakur et al., “Tc-99m Labeled Monoclonal Antibodies: Evaluation of Reducing Agents,” Internat. J. Nucl. Med. Biol. 18, 227-233 (1991). M. L. Thakur et al., “Tc-99m Labeled Monoclonal Antibodies for Immunoscintigraphy: Simplified Preparation and Evaluation,” J. Immunol. Methods 137, 217-225 (1991). Mice were imaged at 1.5, 4 and 24 hours post injection of the ^99m-labeled TNF-α and sacrificed for tissue distribution studies.

[4] = test system: canine glioma tumors; experiment: NMR imaging of tumor using pokeweed mitogen; effect on T1; assay type: in vivo, nude rats
Method: Three nude rats were implanted with canine glioma tumors in their left flank. […] NMR imaging was performed as above at 4 hours post injection.

[5] = 4 and 24 hours post injection of TNF-α
[6] = 1.5 hours post injection of TNF-α
[7] = treatment with unlabeled PWM, FIG. 6

Substance | distribution of I-125 BSA depending on co-injected agent (Tc-99m PWM or Tc-99m HSA) [1] | gamma camera image of tumor with 99mTc-HSA versus control image without pokeweed mitogen [2] | tumor to muscle ratios of radioisotope uptake (99mTc-labeled TNF-α) compared to mice not receiving biomodulators or interferon [3, 5] | tumor to muscle ratios of radioisotope uptake (99mTc-labeled TNF-α) compared to mice not receiving biomodulators or interferon [3, 6] | Visualization of the tumors (NMR imaging) ([4]; 4 hours post injection, 7 days post-implantation) | effect on T1 of the treated tissue image ([4]; NMR image, 4 hours post injection) | T1 measured on the tumor [4, 7] | T1 of normal muscle tissue [4, 7]
I-125 BSA: I-125 bovine serum albumin, non-specific agent | significant differences | – | – | – | – | – | – | –
pokeweed mitogen | – | significant image enhancement | not at 4 and 24 hours | enhanced | observed as bright areas | lowers T1 | enhanced tenfold | remained at baseline levels
interferon | – | – | not at 4 and 24 hours | enhanced | – | – | – | –
